What was measured:
HBV = assay: Anti-HBV activity in HepG2.2.15 cells (HBV DNA in culture medium by qPCR); format: cell-based; conditions: Hepatitis B virus, HepG2.2.15, 144 h, HepG2.2.15 cells, 6 days treatment, HBV DNA in culture medium quantified by real-time PCR; read-out: EC50
Procedure, shortened: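 Secreted HBV DNA was measured by real-time PCR after 6-day compound exposure of HepG2.2.15 cells (2% FBS, 37 °C, re-dosed after 3 days), giving EC50 from 8-point 1:3 series starting at 10 or 1 uM. Cytotoxicity (CC50) run separately at lower cell density, top 100 uM.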

[1] = Cytotoxicity determination in HepG2.2.15 cells (CCK-8 cell viability); format: cell-based; conditions: human, 6 days treatment, CCK-8 assay, highest concentration 100 uM
Procedure, shortened: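 Viability measured by CCK-8 absorbance (450 nm, 630 nm reference, 2.5 h at 37° C) after six days of treatment, medium and compound renewed on day 3. Top concentration 100 uM, eight threefold dilutions in triplicate; cells plated at 5,000/well in 2% FBS medium; CC50 derived.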

Compound	EC50 (HBV)	CC50 at 6 days [1]
CCOC(=O)C1=C(CN2C[C@@H](F)[C@@]3(F)C(=O)N(CC(C)(C)C(=O)O)C[C@@H]23)NC(c2nccs2)=N[C@H]1c1cccc(F)c1C (single isomer, unassigned) [Compound 204A]	11.2 nM	88.9 µM
CCOC(=O)C1=C(CN2C[C@H](F)[C@]3(F)C(=O)N(CC(C)(C)C(=O)O)C[C@H]23)NC(c2nccs2)=N[C@H]1c1cccc(F)c1C (single isomer, unassigned) [Compound 204B]	102 nM	72.1 µM
CCOC(=O)C1=C(CN2C[C@H](F)[C@@]3(F)C(=O)N(CC(C)(C)C(=O)O)C[C@@H]23)NC(c2nccs2)=N[C@H]1c1cccc(F)c1C (single isomer, unassigned) [Compound 204C]	7.1 nM	36.9 µM
CCOC(=O)C1=C(CN2C[C@@H](F)[C@]3(F)C(=O)N(CC(C)(C)C(=O)O)C[C@H]23)NC(c2nccs2)=N[C@H]1c1cccc(F)c1C (single isomer, unassigned) [Compound 204D]	0.4 nM	48.1 µM
CCOC(=O)C1=C(CN2CC(F)(F)[C@@H]3CN(S(=O)(=O)[C@H]4C[C@](C)(C(=O)O)C4)C[C@@H]32)NC(c2nccs2)=N[C@H]1c1cccc(F)c1C (single isomer, unassigned) [Compound 205A]	114 nM	> 50 µM
CCOC(=O)C1=C(CN2CC(F)(F)[C@@H]3CN(S(=O)(=O)[C@H]4C[C@@](C)(C(=O)O)C4)C[C@@H]32)NC(c2nccs2)=N[C@H]1c1cccc(F)c1C (single isomer, unassigned) [Compound 205B]	103 nM	> 50 µM
COC(=O)C1=C(CN2CC(F)(F)[C@@H]3CN(C(=O)C(C)(C)C(=O)O)C[C@@H]32)NC(c2nccs2)=N[C@H]1c1cccc(F)c1Cl (single isomer, unassigned) [Compound 206, 3-((cis)-1-((6-(2-chloro-3-fluorophenyl)-5-(methoxycarbonyl)-2-(thiazol-2-yl)-3,6-dihydropyrimidin-4-yl)methyl)-3,3-difluorohexahydropyrrolo[3,4-b]pyrrol-5(1H)-yl)-2,2-dimethyl-3-oxopropanoic acid]	39.3 nM	> 100 µM
CCOC(=O)C1=C(CN2CC(F)(F)[C@@H]3CN(C(=O)C(C)(C)C(=O)O)C[C@@H]32)NC(c2nccs2)=N[C@H]1c1cccc(F)c1Cl (single isomer, unassigned) [Compound 207, 3-((cis)-1-((6-(2-chloro-3-fluorophenyl)-5-(ethoxycarbonyl)-2-(thiazol-2-yl)-3,6-dihydropyrimidin-4-yl)methyl)-3,3-difluorohexahydropyrrolo[3,4-b]pyrrol-5(1H)-yl)-2,2-dimethyl-3-oxopropanoic acid]	59 nM	> 50 µM
COC(=O)C1=C(CN2CC(F)(F)[C@@H]3CN(C(=O)C(C)(C)C(=O)O)C[C@@H]32)NC(c2nccs2)=N[C@H]1c1ccc(F)cc1Cl (single isomer, unassigned) [Compound 208, 3-((cis)-1-((6-(2-chloro-4-fluorophenyl)-5-(methoxycarbonyl)-2-(thiazol-2-yl)-3,6-dihydropyrimidin-4-yl)methyl)-3,3-difluorohexahydropyrrolo[3,4-b]pyrrol-5(1H)-yl)-2,2-dimethyl-3-oxopropanoic acid]	28.6 nM	> 100 µM
COC(=O)C1=C(CN2CC[C@]3(F)C(=O)N(CC(C)(C)C(=O)O)C[C@H]23)NC(c2nccs2)=N[C@H]1c1ccc(F)c(F)c1Cl (single isomer, unassigned) [Compound 209A, 3-((cis)-1-((6-(2-chloro-3,4-difluorophenyl)-5-(methoxycarbonyl)-2-(thiazol-2-yl)-3,6-dihydropyrimidin-4-yl)methyl)-3a-fluoro-4-oxohexahydropyrrolo[3,4-b]pyrrol-5(1H)-yl)-2,2-dimethylpropanoic acid]	19.1 nM	23.3 µM
CCOC(=O)C1=C(CN2CC[C@]3(F)C(=O)N(CCC(C)(C)C(=O)O)C[C@H]23)NC(c2nccs2)=N[C@H]1c1cccc(F)c1C (single isomer, unassigned) [Compound 210B]	97.7 nM	48.7 µM
CCOC(=O)C1=C(CN2CC(F)(F)C3C(=O)N(CC(C)(C)C(=O)O)C[C@@H]32)NC(c2nccs2)=N[C@@H]1c1ccc(Cl)c(F)c1 (single isomer, unassigned) [Compound 211, 3-((cis)-1-((6-(4-chloro-3-fluorophenyl)-5-(ethoxycarbonyl)-2-(thiazol-2-yl)-3,6-dihydropyrimidin-4-yl)methyl)-3,3-difluoro-4-oxohexahydropyrrolo[3,4-b]pyrrol-5(1H)-yl)-2,2-dimethylpropanoic acid]	36 nM	> 50 µM
CCOC(=O)C1=C(CN2CCC3(F)C(=O)N(CC(C)(C)C(=O)O)CC23)NC(c2nccs2)=N[C@H]1c1cccc(F)c1C (stereo in doubt) [Compound 3, 3-((cis)-1-(((S)-5-(ethoxycarbonyl)-6-(3-fluoro-2-methylphenyl)-2-(thiazol-2-yl)-3,6-dihydropyrimidin-4-yl)methyl)-3a-fluoro-4-oxohexahydropyrrolo[3,4-b]pyrrol-5(1H)-yl)-2,2-dimethylpropanoic acid]	20.2 nM	63.1 µM
CCOC(=O)C1=C(CN2CC(F)(F)C3C2CCN3CC(=O)O)NC(c2nccs2)=N[C@H]1c1cccc(F)c1C (stereo in doubt) [Compound 6, 2-((cis)-4-(((S)-5-(ethoxycarbonyl)-6-(3-fluoro-2-methylphenyl)-2-(thiazol-2-yl)-3,6-dihydropyrimidin-4-yl)methyl)-6,6-difluorohexahydropyrrolo-[3,2-b]pyrrol-1(2H)-yl)acetic acid]	10.4 nM	37.2 µM
CCOC(=O)C1=C(CN2CC(F)(F)C3CN(C(=O)C(C)(C)C(=O)O)CC32)NC(c2nccs2)=N[C@H]1c1cccc(F)c1C (stereo in doubt) [Compound 9, (cis)-3-(1-(((S)-5-(Ethoxycarbonyl)-6-(3-fluoro-2-methylphenyl)-2-(thiazol-2-yl)-3,6-dihydropyrimidin-4-yl)methyl)-3,3-difluorohexahydropyrrolo[3,4-b]pyrrol-5(1H)-yl)-2,2-dimethyl-3-oxopropanoic acid]	41.7 nM	76.3 µM
CCOC(=O)C1=C(CN2CC(F)(F)C3CN(CC(C)(C)C(=O)O)CC32)NC(c2nccs2)=N[C@H]1c1cccc(F)c1C (stereo in doubt) [Compound 12, (cis)-3-(1-(((S)-5-(ethoxycarbonyl)-6-(3-fluoro-2-methylphenyl)-2-(thiazol-2-yl)-3,6-dihydropyrimidin-4-yl)methyl)-3,3-difluorohexahydropyrrolo[3,4-b]pyrrol-5(1H)-yl)-2,2-dimethylpropanoic acid]	32.4 nM	56.7 µM
CCOC(=O)C1=C(CN2CC(F)(F)C3CN(C(C)C(=O)O)CC32)NC(c2nccs2)=N[C@H]1c1cccc(F)c1C (stereo in doubt) [Compound 14, 2-((cis)-1-(((S)-5-(Ethoxycarbonyl)-6-(3-fluoro-2-methylphenyl)-2-(thiazol-2-yl)-3,6-dihydropyrimidin-4-yl)methyl)-3,3-difluorohexahydropyrrolo[3,4-b]pyrrol-5(1H)-yl)propanoic acid]	137 nM	> 100 µM

— US20230083012A1, “DIHYDROPYRIMIDINE DERIVATIVES AND USES THEREOF IN THE TREATMENT OF HBV INFECTION OR OF HBV-INDUCED DISEASES” (priority 2019, published 2023)
